Source: patent publication US20230277661A1, “TREATMENT OF CANCER USING A CEA CD3 BISPECIFIC ANTIBODY AND A TGFbeta SIGNALING INHIBITOR” (Hoffmann-La Roche Inc., priority 2020, published 2023)
Read-outs that look alike come from different tables or passages of the source.

Key:
[1] = test system: CD8 T-cells; experiment: FACS analysis of CD8 T-cells co-cultured with PDOs; assay type: cell-based, human; details: 8 days co-culture with PDOs during CEA-TCB treatment; flow cytometry
Method: FIG. 3. Effect of TGFβ on granzyme expression and proliferation of CD8 T-cells. (A) Granzyme expression in ex vivo CD8 T-cells determined by flow cytometry after 8 days of co-culture with a high cell surface CEA expressing PDO. (B) Proliferation of ex vivo CD8 T-cells treated with either DP47-TCB or cibisatamab assessed by flow cytometry after 8 days of co-culture with a high cell surface CEA expressing PDO. (C) Same as (B) except that co-culture was treated with recombinant TGFβ.
Thus, TGFβ potently suppresses cibisatamab mediated tumor control by blocking proliferation and effector functions.

[2] = test system: patient-derived colorectal cancer organoid lines (PDOs) with high cell surface CEA expression levels; experiment: PDO growth in co-culture with CD8 or CD4 T cells (GFP confluence); assay type: cell-based, human
Method: Three patient-derived colorectal cancer organoid lines (PDOs) with high cell surface CEA expression levels were treated with cibisatamab (20 nM) or the corresponding untargeted control antibody DP47-TCB (see SEQ ID NOs 21 and 22 for VH and VL regions, respectively) (20 nM) either in the presence or absence of recombinant TGFβ1 (10 ng/ml) during 12 days of co-culture with allogeneic CD8 T cells at an Effector:Target ratio of […] (FIG. 1A). Growth of the nuclear GFP labelled organoid cells was monitored by fluorescent microscopy. CD8 T cells had been generated from allogeneic healthy donor cells by extracting peripheral blood mononuclear (PBMCs) cells followed by stimulation with IL-2 and CD3/CD28-beads and expansion in vitro. CD8 T cells and PDOs +/− TGFβ (10 ng/ml) were pre-incubated together for 72 hours prior to the addition of cibisatamab or DP47-TCB.
The same experiment was repeated using two PDO lines and CD4 T cells instead of CD8 T cells (FIG. 1B). CD4+CD25-T cells were isolated from allogeneic healthy donor PBMCs and expanded in vitro as described above.
The initial screen was generated with in vitro expanded and pre-activated CD8 T-cells. […]
In order to calculate the growth of cibisatamab treated PDOs relative to DP47-TCB treated PDOs, the fold change of growth from day 0 to day 12 was calculated and 1 was subtracted. […]
PDOs were harvested with TrypLE Express and neutralised with DMEM/F12 Ham medium (Sigma Aldrich) with 10% FBS. Cells were filtered through a 70 μm filter, counted and re-suspended in RPMI medium (Thermo Fisher) supplemented with 10% FBS (Labtech), 1X Glutamax and 100 units penicillin-streptomycin. […]
(§1) The GFP confluence was quantified every 48-96 hrs over a 12-day period using the GFP confluence application on the Celigo Imaging Cytometer (Nexcelom Bioscience). […] In order to calculate the percentage of growth reduction, the fold change of growth from day 0 to day 12 was calculated and 1 was subtracted. […]

[3] = test system: PDOs that stably express high CEA levels; experiment: PDO and ex vivo CD8 T-cell co-culture with TGFβ inhibitor galunisertib; assay type: cell-based, human; details: galunisertib 5 μM or 10 μM; TGFβ 10 ng/ml; cibisatamab 20 nM; ex vivo CD8 T cells, E:T 1:1; two PDO models
Method: PDOs that stably express high CEA levels were combined with ex vivo allogeneic CD8 T cells isolated from healthy donor PBMCs in a 2D co-culture at an effector:target (E:T) ratio of 1:1. T cells were preincubated with TGFβ (10 ng/ml) prior to adding either DP47 or cibisatamab treatment with or without TGFβ inhibitor galunisertib.
The growth of GFP PDOs was tracked by monitoring changes in confluency with fluorescence microscopy and efficacy of the combination therapy assessed by comparing growth reduction from single therapy and combined therapy conditions.
Ex vivo CD8 T cells were isolated from PBMCs as described above and pre-incubated with TGFβ (10 ng/ml) for 72 hours before being combined with tumour cells that were seeded 24 hours before at a density of 5000 tumour cells per well in a 96 well plate as described above (E:T 1:1). On the same day (day 0) the co-culture was treated with either 20 nM of cibisatamab or 20 nM of the untargeted negative control antibody DP47-TCB +/− TGFβ ([…]) +/− galunisertib (5 μM or 10 μM, Tocris). All conditions were plated in triplicates.
as §1

[4] = test system: CEA expressing metastatic CRCs; details: cited from earlier work

TGFβ: recombinant TGFβ1 (10 ng/ml, R&D Systems) added to the co-cultures as immunosuppressive factor
T-cell granzyme expression [1]: strongly reduced | proliferation of T-cells [1]: strongly reduced | growth of cibisatamab treated PDOs compared to PDOs treated with cibisatamab alone ([2]; TGFβ 10 ng/ml added, day 12, CD8 and CD4 T cells): increased the growth of cibisatamab treated PDOs | effect of TGFβ on efficacy of cibisatamab ([2]; TGFβ1 10 ng/ml, cibisatamab 20 nM, CD8 and CD4 T cells, 12 days co-culture): impaired the efficacy of cibisatamab

Cc1cccc(-c2nn3c(c2-c2ccnc4ccc(C(N)=O)cc24)CCC3)n1 [Galunisertib, 4-(5,6-Dihydro-2-(6-methyl-2-pyridinyl)-4H-pyrrolo(1,2-b)pyrazol-3-yl)-6-quinolinecarboxamide]
reversal of TGFβ effects on cibisatamab activity (PDO growth) [3]: strongly reduced TGFβ effects

B1: cibisatamab: T-cell activating bispecific antibody targeting carcinoembryonic antigen (CEA) on tumor cells and CD3 on T-cells (antibody, chains of the INN, looked up, V domains shown)
VH: QVQLVQSGAEVKKPGASVKVSCKASGYTFTEFGMNWVRQAPGQGLEWMGWINTKTGEATYVEEFKGRVTFTTDTSTSTAYMELRSLRSDDTAVYYCARWDFAYYVEAMDYWGQGTTVTVSS
VL: DIQMTQSPSSLSASVGDRVTITCKASAAVGTYVAWYQQKPGKAPKLLIYSASYRKRGVPSRFSGSGSGTDFTLTISSLQPEDFATYYCHQYYTYPLFTFGQGTKLEIK
VH2: B1 VH
VL2: QAVVTQEPSLTVSPGGTVTLTCGSSTGAVTTSNYANWVQEKPGQAFRGLIGGTNKRAPGTPARFSGSLLGGKAALTLSGAQPEDEAEYYCALWYSNLWVFGGGTKLTVL
antitumor activity with radiological shrinkage, share of patients ([4]; in combination with PD-L1-inhibiting antibodies, 5/10): 50% | antitumor activity with radiological shrinkage, share of patients ([4]; monotherapy, patients had failed at least two prior chemotherapy regimens, 4/36): 11% | growth of PDOs relative to DP47-TCB treated (control) PDOs ([2]; cibisatamab 20 nM, day 12, CD8 or CD4 T cells): reduced the growth of PDOs
